Patent US9211278B2, “Composition containing arylnaphthalene lignan derivative for preventing and/or treating dementia” (KOREA INSTITUTE OF SCIENCE AND TECHNOLOGY, priority 2012, dated 2015)

Legend:
[1] = tested on: beta-amyloid (Aβ40, Aβ42) formation; experiment: Beta-amyloid (Aβ40, Aβ42) formation, ELISA, in APP-transfected HeLa cells; format: cell-based, human; settings: HeLa-APP cells, various concentrations (FIGS. 1, 2, 6)
Protocol: To test the inhibitory effect of Justicidin A (C1) obtained in Example 2 on the beta-amyloid formation, HeLa cell line transfected with the amyloid precursor protein (APP) driven from human was cultured in DMEM solution (Cat. #11995, Gibco, USA) for use. The cell line was received from Prof. Tae-Wan Kim at Department of Pathology, Columbia University Medical Center, New York, N.Y. 10032, USA.
Specifically, the Justicidin A of Example 2 was added into the cell line culture at the amount indicated in FIG. 1, and then the produced amount of be-amyloid (Aβ40, Aβ42 was measured. Human β-Amyloid[1-40](Aβ40), Human β-Amyloid [1-42](Aβ42) Colorimetric ELISA kit (#KHB3482 and #KHB3442; BioSource International, Inc., U.S.A.) were used to quantify two types of beta-amyloid (Aβ40, Aβ42).
The 5-methoxyJusticidin A (C2) of Example 2 was added into the cell line culture at the amount indicated in FIG. 2, and then the produced amount of be-amyloid was measured according to the method of Example 1.1. The group which was not treated with 5-methoxyjusticidin A was used as a negative control.
The compounds were used at the amount of FIG. 6, and measured for the beta-amyloid (Aβ40, Aβ42) formation according to the same method of Experimental Example <1-1>. The group treated with Justicidin A(C1) was a positive control and the group with no treatment was a negative control.

[2] = tested on: HeLa cell line transfected with the amyloid precursor protein (APP); experiment: MTT cell proliferation assay (cell death); format: cell-based; settings: 5 μg/ml, 8 hours
Protocol: To test the effect of Justicidin A and 5-methoxyJusticidin A on cell death, the MTT Cell Proliferation assay method (ATCC catalog #30-1010K, Manassas, USA) was used. Specifically, the HeLa cell line transfected with the amyloid precursor protein (APP) driven from human was treated with various concentrations of Justicidin A (S62-C1) or 5-methoxyJusticitdin A (S62-C2) for 8 hours, and the viable cells were quantified to show the result in FIG. 3.

O-glycosylated maAPP = experiment: APP O-glycosylation, O-glycosylation antibody then APP Western blotting; format: cell-based, human; settings: 1, 5, 10 uM, 4 hrs
Protocol: According to the same method as above, HeLa cell line was treated with 1, 5, 10 uM of Justicidin A for 4 hrs. Then, the 5 ul of O-glycosylation antibody (#MMS-248R, Covance) was added to 500 ug of the separated plasma membrane protein, and performed by electrophoresis and the western blotting using the APP antibody (1:2000 diluted, A8717, Sigma).

transferrin endocytosis = experiment: Transferrin endocytosis (confocal microscopy); format: cell-based, human; settings: 1 uM, 10, 30, 60 min at 37° C.
Protocol: The reduced endocytosis rate may be caused by total reduction of endocytosis other than the specific reduction of APP endocytosis rate, because many proteins other than APP can be modified to include the O-glycosylation and the like, by Justicidin A. Thus, the effect of Justicidin A to transferrin, internalized by clathrin-dependent endocytosis like APP was measured, in order to identify selectivity of reducing of APP endocytosis rate by O-glycosylation.
5×10^5 cells of HeLa cell line transfected with amyloid precursor protein (APP) same as above, incubated for 24 hrs, 1 uM Justicidin A treated at 4° C. for 45 min. Then, transferrin was fluorescent-labeled by treating Alexa Fluor 488 conjugated transferrin (25 ug/ml concentration, #T13342, Invitrogen). Transferrin endocytosis was progressed depending on the incubation time 10, 30, 60 min at 37° C., then remained transferrin was washed out by treating pH 5.5 buffer (0.1M sodium acetate, 0.05M NaCl) to cell surface for 5 min
Intracellular location of transferrin was measured by confocal microscopy (LSM510, Zeiss, Germany) at 488 nm.

PC12 cell = experiment: Cell viability assay, Cell counting kit-8; format: cell-based; settings: 125 nM to 1000 nM, 24 hrs
Protocol: Firstly, cell viability assay was performed for identifying whether Justicidin A had toxicity to normal brain cell line. Cell viability assay performed using Cell counting kit-8 (CCK-8, WST-8, Kamimashikigun, Kumamoto, Japan). More particularly, 1.5×10^4 cells of PC12 (Cell No. RCB0009, RIKEN BRC Cell Bank, Tsukuba, Ibaraki, Japan) were seeded to each well of 96-well plate, and incubated for 24 hrs. Then various concentrations of Justicidin A were treated for 24 hrs, and measured by Cell counting kit-8.

male ICR mouse = experiment: Novel object recognition test, scopolamine-impaired memory model; format: in vivo; settings: oral, 10 mg/kg and 20 mg/kg; compared with 2 mg/kg Donepezil
Protocol: The male ICR mouse was 5 to 6-week age (25˜30 g of body weight) (Orientbio Inc., Seougnam, Republic of Korea), and was raised with solid feed and tap water for 1 week before being used for test. For 3 days before the test, each mouse to get adjusted to Arena (grey mat acryl material, 50 cm×50 cm×60 cm) went freely into the Arena for 10 minutes per a day.
At a first day, the normal control group and the group administered by the scopolamine were fed with 5% (v/v) DMSO-saline, the test group was orally administered by 1, 5, 10 and 20 mg/kg/10 ml of Justicidin A (C1) in 5% DMSO-Saline, and the comparative group was administered with 2 mg/kg/10 ml of Donepezil (brand name: Aricept, Eisai) being commercially available as a drug for treating an dementia of the Alzheimer's type. After 30 minutes, the groups were intraperitoneally injected by scopolamine (Sigma-Aldrich Chemical Co., St Louis, USA) at 1 mg/kg/10 ml. […]
At the second day, the mice were dropped into the Arena without treatment of additional drug and scopolamine. […] Entire test was automatically recorded and analyzed with Noldus Ethovision 7.0 program (Noldus Information Technology, USA). The time when the mice sought the object in 3 minutes after dropping two objects at second day of test were measured and calculated as Memory Index (%, ratio of time for Novel object recognition to entire time for recognition). […]

## COc1cc2c(OC)c3c(c(-c4ccc5c(c4)OCO5)c2cc1OC)C(=O)OC3 [Justicidin A]
[1]
  inhibition of beta-amyloid (Aβ40, Aβ42) formation: inhibited the beta-amyloid (Aβ40, Aβ42) formation at a concentration-dependent manner
[2]
  cell lines died: ≤ 20%
O-glycosylated maAPP
  O-glycosylated maAPP: the O-glycosylated maAPP was increased
Transferrin endocytosis
  transferrin endocytosis: no effect of Justicidin A to transferrin endocytosis
PC12 cell
  toxicity to PC12 cell: has no toxicity to PC12 cell
Male ICR mouse
  memory and learning ability (Memory Index): showed high memory and learning ability
